Reference: ChEMBL document CHEMBL4265897, “Discovery of benzothiazole amides as potent antimycobacterial agents” (Bioorg Med Chem Lett, 2018)
Converted amounts (≈) assume the structure as drawn.

How the values were obtained:
[1] = system: Mycobacteroides abscessus; assay: Antimycobacterial activity against Mycobacterium abscessus ATCC 19977 by CLSI method; assay type: functional
[2] = system: Mycobacterium avium; assay: Antimycobacterial activity against Mycobacterium avium 101 by CLSI method; assay type: functional
[3] = system: Mycobacterium intracellulare; assay: Antimycobacterial activity against Mycobacterium intracellulare 1956 by CLSI method; assay type: functional
[4] = system: Mycobacteroides abscessus; assay: Antimycobacterial activity against Mycobacterium abscessus 1 by CLSI method; assay type: functional
[5] = system: Mycobacteroides abscessus; assay: Antimycobacterial activity against Mycobacterium abscessus 21 by CLSI method; assay type: functional
[6] = system: Mycobacteroides abscessus; assay: Antimycobacterial activity against Mycobacterium abscessus 79 by CLSI method; assay type: functional
[7] = system: Mycobacteroides abscessus; assay: Antimycobacterial activity against Mycobacterium massiliense 119 by CLSI method; assay type: functional, Mycobacterium abscessus subsp. massiliense
[8] = system: Mycobacteroides chelonae; assay: Antimycobacterial activity against Mycobacterium chelonae 93 by CLSI method; assay type: functional
[9] = system: Mycolicibacterium fortuitum; assay: Antimycobacterial activity against Mycobacterium fortuitum 41 by CLSI method; assay type: functional
[10] = system: Mycolicibacterium peregrinum; assay: Antimycobacterial activity against Mycobacterium peregrinum ATCC 700686 by CLSI method; assay type: functional
[11] = system: Mycobacterium tuberculosis; assay: Antimycobacterial activity against Mycobacterium tuberculosis H37Rv MC2 6206 by CLSI method; assay type: functional
[12] = system: Mycobacteroides abscessus; assay: Antimycobacterial activity against Mycobacterium abscessus 103 by CLSI method; assay type: functional

| Structure (SMILES) | MIC [1] | MIC [2] | MIC [3] | MIC [4] | MIC [5] | MIC [6] | MIC [7] | MIC [8] | MIC [9] | MIC [10] | MIC [11] | MIC [12] |
| --- | --- | --- | --- | --- | --- | --- | --- | --- | --- | --- | --- | --- |
| O=C(Nc1nc2ccc(C(F)(F)F)cc2s1)C1CCCC2(CC2)C1 (configuration not stated) | 4 µg/mL (≈ 11.3 µM) | > 64 µg/mL | > 64 µg/mL | 8 µg/mL (≈ 22.6 µM) | 2 µg/mL (≈ 5.64 µM) | 1 µg/mL (≈ 2.82 µM) | 2 µg/mL (≈ 5.64 µM) | 1 µg/mL (≈ 2.82 µM) | > 64 µg/mL | 1 µg/mL (≈ 2.82 µM) |  |  |
| O=C(Nc1nc2ccc(OC(F)(F)F)cc2s1)C1CCCCCC1 |  | > 64 µg/mL | > 64 µg/mL | > 64 µg/mL | > 64 µg/mL | > 64 µg/mL | > 64 µg/mL | 32 µg/mL (≈ 89.3 µM) | > 64 µg/mL | > 64 µg/mL | 64 µg/mL (≈ 179 µM) | > 64 µg/mL |
| O=C(Nc1nc2ccc(C(F)(F)F)cc2s1)C1CCCC(C(F)(F)F)C1 (configuration not stated) |  | 16 µg/mL (≈ 40.4 µM) | 16 µg/mL (≈ 40.4 µM) | 2 µg/mL (≈ 5.05 µM) | 1 µg/mL (≈ 2.52 µM) | 2 µg/mL (≈ 5.05 µM) | 1 µg/mL (≈ 2.52 µM) | 0.5 µg/mL (≈ 1.26 µM) | 2 µg/mL (≈ 5.05 µM) | 1 µg/mL (≈ 2.52 µM) |  |  |
| Cc1cc(C)c2sc(NC(=O)C34CCCC(C)(CCC3)C4)nc2c1 |  | 8 µg/mL (≈ 23.4 µM) | 8 µg/mL (≈ 23.4 µM) | 0.25 µg/mL (≈ 0.73 µM) | 0.12 µg/mL (≈ 0.35 µM) | 0.12 µg/mL (≈ 0.35 µM) | 0.12 µg/mL (≈ 0.35 µM) | 0.12 µg/mL (≈ 0.35 µM) | 1 µg/mL (≈ 2.92 µM) | 0.25 µg/mL (≈ 0.73 µM) |  | 0.25 µg/mL (≈ 0.73 µM) |
| CC12CCCC(C(=O)Nc3nc4c(F)cc(F)cc4s3)(CCC1)C2 |  | 4 µg/mL (≈ 11.4 µM) | 4 µg/mL (≈ 11.4 µM) |  | 0.12 µg/mL (≈ 0.342 µM) | 0.12 µg/mL (≈ 0.342 µM) | 0.12 µg/mL (≈ 0.342 µM) | 0.12 µg/mL (≈ 0.342 µM) | 0.25 µg/mL (≈ 0.713 µM) | 0.06 µg/mL (≈ 0.171 µM) |  | 0.25 µg/mL (≈ 0.713 µM) |
| CC1CC(C(=O)Nc2nc3ccc(OC(F)F)cc3s2)CC(C)(C)C1 (configuration not stated) |  | > 64 µg/mL | 8 µg/mL (≈ 21.7 µM) | 1 µg/mL (≈ 2.71 µM) | 0.5 µg/mL (≈ 1.36 µM) | 0.5 µg/mL (≈ 1.36 µM) | 0.5 µg/mL (≈ 1.36 µM) | 0.25 µg/mL (≈ 0.679 µM) | 0.5 µg/mL (≈ 1.36 µM) | 0.12 µg/mL (≈ 0.326 µM) | 2 µg/mL (≈ 5.43 µM) | 0.5 µg/mL (≈ 1.36 µM) |
| CC1CC(C(=O)Nc2nc3c(F)cc(Br)cc3s2)CC(C)(C)C1 (configuration not stated) |  | > 64 µg/mL | 16 µg/mL (≈ 40.1 µM) | 1 µg/mL (≈ 2.5 µM) | 0.5 µg/mL (≈ 1.25 µM) | 0.5 µg/mL (≈ 1.25 µM) | 1 µg/mL (≈ 2.5 µM) | 0.25 µg/mL (≈ 0.626 µM) | 2 µg/mL (≈ 5.01 µM) | 0.5 µg/mL (≈ 1.25 µM) |  | 1 µg/mL (≈ 2.5 µM) |
| CC1CC(C(=O)Nc2nc3cccc(O)c3s2)CC(C)(C)C1 (configuration not stated) |  |  | 4 µg/mL (≈ 12.6 µM) |  | 16 µg/mL (≈ 50.2 µM) | 8 µg/mL (≈ 25.1 µM) | 2 µg/mL (≈ 6.28 µM) | 1 µg/mL (≈ 3.14 µM) | 2 µg/mL (≈ 6.28 µM) | 0.12 µg/mL (≈ 0.377 µM) |  | 2 µg/mL (≈ 6.28 µM) |
| CC1(C(=O)Nc2nc3ccc(OC(F)(F)F)cc3s2)CCCCCC1 |  | 8 µg/mL (≈ 21.5 µM) | 4 µg/mL (≈ 10.7 µM) | 0.25 µg/mL (≈ 0.671 µM) | 0.12 µg/mL (≈ 0.322 µM) | 0.12 µg/mL (≈ 0.322 µM) | 0.12 µg/mL (≈ 0.322 µM) | 0.25 µg/mL (≈ 0.671 µM) | 2 µg/mL (≈ 5.37 µM) | 0.5 µg/mL (≈ 1.34 µM) |  | 0.25 µg/mL (≈ 0.671 µM) |
| O=C(Nc1nc2ccc(C(F)(F)F)cc2s1)C1CC2CCC1C2 (configuration not stated) | > 64 µg/mL | 32 µg/mL (≈ 94 µM) | 32 µg/mL (≈ 94 µM) |  |  |  |  |  |  |  |  |  |
| CC1CC(C(=O)Nc2nc3ccc(C(F)(F)F)cc3s2)CC(C)(C)C1 (configuration not stated) |  | > 64 µg/mL | > 64 µg/mL | 0.5 µg/mL (≈ 1.35 µM) | 0.5 µg/mL (≈ 1.35 µM) | 0.5 µg/mL (≈ 1.35 µM) | 2 µg/mL (≈ 5.4 µM) | 0.25 µg/mL (≈ 0.675 µM) | 0.5 µg/mL (≈ 1.35 µM) | 0.25 µg/mL (≈ 0.675 µM) |  |  |
| CC1CC(C(=O)Nc2nc3c(F)c(F)c(F)cc3s2)CC(C)(C)C1 (configuration not stated) |  | > 64 µg/mL | > 64 µg/mL | 0.5 µg/mL (≈ 1.4 µM) | 0.5 µg/mL (≈ 1.4 µM) | 0.25 µg/mL (≈ 0.701 µM) | 0.5 µg/mL (≈ 1.4 µM) | 0.25 µg/mL (≈ 0.701 µM) | 0.25 µg/mL (≈ 0.701 µM) | 0.12 µg/mL (≈ 0.337 µM) | 1 µg/mL (≈ 2.81 µM) | 0.5 µg/mL (≈ 1.4 µM) |
| CC12CCCC(C(=O)Nc3nc4cc(Br)ccc4s3)(CCC1)C2 |  | 4 µg/mL (≈ 10.2 µM) | 1 µg/mL (≈ 2.54 µM) | 0.25 µg/mL (≈ 0.636 µM) | 0.06 µg/mL (≈ 0.153 µM) | 0.06 µg/mL (≈ 0.153 µM) | 0.06 µg/mL (≈ 0.153 µM) | 0.06 µg/mL (≈ 0.153 µM) | 0.03 µg/mL (≈ 0.0763 µM) | ≤ 0.07 µg/mL | ≤ 0.12 µg/mL | 0.06 µg/mL (≈ 0.153 µM) |
| CC1CC(C(=O)Nc2nc3ccc(F)cc3s2)CC(C)(C)C1 (configuration not stated) |  | 8 µg/mL (≈ 25 µM) | 8 µg/mL (≈ 25 µM) | 0.5 µg/mL (≈ 1.56 µM) | 0.5 µg/mL (≈ 1.56 µM) | 0.5 µg/mL (≈ 1.56 µM) | 0.25 µg/mL (≈ 0.78 µM) | 0.25 µg/mL (≈ 0.78 µM) | 0.25 µg/mL (≈ 0.78 µM) | 0.06 µg/mL (≈ 0.187 µM) | 4 µg/mL (≈ 12.5 µM) | 0.25 µg/mL (≈ 0.78 µM) |
| CC12CCCC(C(=O)Nc3nc4ccc(C(F)(F)F)cc4s3)(CCC1)C2 |  | > 8 µg/mL | 4 µg/mL (≈ 10.5 µM) | 0.5 µg/mL (≈ 1.31 µM) | 0.25 µg/mL (≈ 0.654 µM) | 0.25 µg/mL (≈ 0.654 µM) | 0.25 µg/mL (≈ 0.654 µM) | 0.5 µg/mL (≈ 1.31 µM) | 0.5 µg/mL (≈ 1.31 µM) | 0.12 µg/mL (≈ 0.314 µM) |  | 0.12 µg/mL (≈ 0.314 µM) |
| CC1(C(=O)Nc2nc3ccc(OC(F)(F)F)cc3s2)CCCCC1 |  | 8 µg/mL (≈ 22.3 µM) | 4 µg/mL (≈ 11.2 µM) |  | 0.12 µg/mL (≈ 0.335 µM) | 0.12 µg/mL (≈ 0.335 µM) | 0.12 µg/mL (≈ 0.335 µM) | 0.25 µg/mL (≈ 0.698 µM) | 2 µg/mL (≈ 5.58 µM) | 0.5 µg/mL (≈ 1.4 µM) | 4 µg/mL (≈ 11.2 µM) | 0.12 µg/mL (≈ 0.335 µM) |
| CC12CCCC(C(=O)Nc3nc4ccc(OC(F)F)cc4s3)(CCC1)C2 |  | 8 µg/mL (≈ 21 µM) | 4 µg/mL (≈ 10.5 µM) | 0.25 µg/mL (≈ 0.657 µM) | 0.12 µg/mL (≈ 0.315 µM) | 0.12 µg/mL (≈ 0.315 µM) | 0.12 µg/mL (≈ 0.315 µM) | 0.25 µg/mL (≈ 0.657 µM) | 1 µg/mL (≈ 2.63 µM) | 0.12 µg/mL (≈ 0.315 µM) |  |  |
